From PubChem BioAssay (NCI)
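Grown in 96-well plates, cells were treated for 48 hours with each compound at five concentrations. Insufficient inhibition: endpoint recorded as highest concentration tested. GI50: concentration for 50% inhibition of growth. TGI denotes the concentration required for complete inhibition of growth.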

Tests used:
Assay in all cases: NCI tumour cell line growth inhibition, 48 h
HT29 colon = system: HT29 colon
HOP-92 NSCLC = system: HOP-92 NSCLC
HOP-62 NSCLC = system: HOP-62 NSCLC
NCI-H460 lung = system: NCI-H460 lung
UACC-62 melanoma = system: UACC-62 melanoma
MDA-MB-435 = system: MDA-MB-435
U251 CNS = system: U251 CNS
HCT-116 colon = system: HCT-116 colon
RPMI-8226 leukemia = system: RPMI-8226 leukemia
SN12C renal = system: SN12C renal
786-0 renal = system: 786-0 renal
TK-10 renal = system: TK-10 renal
COLO 205 colon = system: COLO 205 colon
SW-620 colon = system: SW-620 colon
MCF7 breast = system: MCF7 breast
CAKI-1 renal = system: CAKI-1 renal
SK-OV-3 ovarian = system: SK-OV-3 ovarian
SNB-19 CNS = system: SNB-19 CNS
LOX IMVI melanoma = system: LOX IMVI melanoma
UO-31 renal = system: UO-31 renal
OVCAR-4 ovarian = system: OVCAR-4 ovarian
NCI/ADR-RES ovarian = system: NCI/ADR-RES ovarian
MDA-MB-231 breast = system: MDA-MB-231 breast
PC-3 prostate = system: PC-3 prostate
MALME-3M melanoma = system: MALME-3M melanoma
SR leukemia = system: SR leukemia
SF-295 CNS = system: SF-295 CNS
IGROV1 ovarian = system: IGROV1 ovarian
SK-MEL-28 melanoma = system: SK-MEL-28 melanoma
SNB-75 CNS = system: SNB-75 CNS
HS 578T breast = system: HS 578T breast
HCC-2998 colon = system: HCC-2998 colon
ACHN renal = system: ACHN renal
OVCAR-3 ovarian = system: OVCAR-3 ovarian
SF-539 CNS = system: SF-539 CNS
NCI-H23 lung = system: NCI-H23 lung
OVCAR-8 ovarian = system: OVCAR-8 ovarian
T-47D breast = system: T-47D breast
CCRF-CEM leukemia = system: CCRF-CEM leukemia
UACC-257 melanoma = system: UACC-257 melanoma
SK-MEL-5 melanoma = system: SK-MEL-5 melanoma
RXF 393 renal = system: RXF 393 renal
SK-MEL-2 melanoma = system: SK-MEL-2 melanoma
KM12 colon = system: KM12 colon
SF-268 CNS = system: SF-268 CNS
K-562 leukemia = system: K-562 leukemia
EKVX NSCLC = system: EKVX NSCLC
A498 renal = system: A498 renal
NCI-H522 lung = system: NCI-H522 lung
A549 NSCLC = system: A549 NSCLC
M14 melanoma = system: M14 melanoma
HCT-15 colon = system: HCT-15 colon
HL-60(TB) leukemia = system: HL-60(TB) leukemia
NCI-H226 lung = system: NCI-H226 lung
OVCAR-5 ovarian = system: OVCAR-5 ovarian
DU-145 prostate = system: DU-145 prostate
BT-549 breast = system: BT-549 breast
MOLT-4 leukemia = system: MOLT-4 leukemia

CC(=O)OC[C@H]1O[C@@H](n2ccc(=O)[nH]c2=O)[C@H](OC(C)=O)[C@@H]1OC(C)=O
GI50 (HT29 colon): > 100 µM | TGI (HT29 colon): > 100 µM | GI50 (HOP-92 NSCLC): > 100 µM | TGI (HOP-92 NSCLC): > 100 µM | GI50 (HOP-62 NSCLC): > 100 µM | TGI (HOP-62 NSCLC): > 100 µM | GI50 (NCI-H460 lung): > 100 µM | TGI (NCI-H460 lung): > 100 µM | GI50 (UACC-62 melanoma): > 100 µM | TGI (UACC-62 melanoma): > 100 µM | GI50 (MDA-MB-435): > 100 µM | TGI (MDA-MB-435): > 100 µM | GI50 (U251 CNS): > 100 µM | TGI (U251 CNS): > 100 µM | GI50 (HCT-116 colon): > 100 µM | TGI (HCT-116 colon): > 100 µM | GI50 (RPMI-8226 leukemia): > 100 µM | TGI (RPMI-8226 leukemia): > 100 µM | GI50 (SN12C renal): > 100 µM | TGI (SN12C renal): > 100 µM | GI50 (786-0 renal): > 100 µM | TGI (786-0 renal): > 100 µM | GI50 (TK-10 renal): > 100 µM | TGI (TK-10 renal): > 100 µM | GI50 (COLO 205 colon): > 100 µM | TGI (COLO 205 colon): > 100 µM | GI50 (SW-620 colon): > 100 µM | TGI (SW-620 colon): > 100 µM | GI50 (MCF7 breast): > 100 µM | TGI (MCF7 breast): > 100 µM | GI50 (CAKI-1 renal): > 100 µM | TGI (CAKI-1 renal): > 100 µM | GI50 (SK-OV-3 ovarian): > 100 µM | TGI (SK-OV-3 ovarian): > 100 µM | GI50 (SNB-19 CNS): > 100 µM | TGI (SNB-19 CNS): > 100 µM | GI50 (LOX IMVI melanoma): > 100 µM | TGI (LOX IMVI melanoma): > 100 µM | GI50 (UO-31 renal): > 100 µM | TGI (UO-31 renal): > 100 µM | GI50 (OVCAR-4 ovarian): > 100 µM | TGI (OVCAR-4 ovarian): > 100 µM | GI50 (NCI/ADR-RES ovarian): > 100 µM | TGI (NCI/ADR-RES ovarian): > 100 µM | GI50 (MDA-MB-231 breast): > 100 µM | TGI (MDA-MB-231 breast): > 100 µM | GI50 (PC-3 prostate): > 100 µM | TGI (PC-3 prostate): > 100 µM | GI50 (MALME-3M melanoma): > 100 µM | TGI (MALME-3M melanoma): > 100 µM | GI50 (SR leukemia): > 100 µM | TGI (SR leukemia): > 100 µM | GI50 (SF-295 CNS): > 100 µM | TGI (SF-295 CNS): > 100 µM | GI50 (IGROV1 ovarian): > 100 µM | TGI (IGROV1 ovarian): > 100 µM | GI50 (SK-MEL-28 melanoma): > 100 µM | TGI (SK-MEL-28 melanoma): > 100 µM | GI50 (SNB-75 CNS): > 100 µM | TGI (SNB-75 CNS): > 100 µM | GI50 (HS 578T breast): > 100 µM | TGI (HS 578T breast): > 100 µM | GI50 (HCC-2998 colon): > 100 µM | TGI (HCC-2998 colon): > 100 µM | GI50 (ACHN renal): > 100 µM | TGI (ACHN renal): > 100 µM | GI50 (OVCAR-3 ovarian): > 100 µM | TGI (OVCAR-3 ovarian): > 100 µM | GI50 (SF-539 CNS): > 100 µM | TGI (SF-539 CNS): > 100 µM | GI50 (NCI-H23 lung): > 100 µM | TGI (NCI-H23 lung): > 100 µM | GI50 (OVCAR-8 ovarian): > 100 µM | TGI (OVCAR-8 ovarian): > 100 µM | GI50 (T-47D breast): > 100 µM | TGI (T-47D breast): > 100 µM | GI50 (CCRF-CEM leukemia): > 100 µM | TGI (CCRF-CEM leukemia): > 100 µM | GI50 (UACC-257 melanoma): > 100 µM | TGI (UACC-257 melanoma): > 100 µM | GI50 (SK-MEL-5 melanoma): > 100 µM | TGI (SK-MEL-5 melanoma): > 100 µM | GI50 (RXF 393 renal): > 100 µM | TGI (RXF 393 renal): > 100 µM | GI50 (SK-MEL-2 melanoma): > 100 µM | TGI (SK-MEL-2 melanoma): > 100 µM | GI50 (KM12 colon): > 100 µM | TGI (KM12 colon): > 100 µM | GI50 (SF-268 CNS): > 100 µM | TGI (SF-268 CNS): > 100 µM | GI50 (K-562 leukemia): > 100 µM | TGI (K-562 leukemia): > 100 µM | GI50 (EKVX NSCLC): > 100 µM | TGI (EKVX NSCLC): > 100 µM | GI50 (A498 renal): > 100 µM | TGI (A498 renal): > 100 µM | GI50 (NCI-H522 lung): > 100 µM | TGI (NCI-H522 lung): > 100 µM | GI50 (A549 NSCLC): > 100 µM | TGI (A549 NSCLC): > 100 µM | GI50 (M14 melanoma): > 100 µM | TGI (M14 melanoma): > 100 µM | GI50 (HCT-15 colon): > 100 µM | TGI (HCT-15 colon): > 100 µM | GI50 (HL-60(TB) leukemia): > 100 µM | TGI (HL-60(TB) leukemia): > 100 µM | GI50 (NCI-H226 lung): > 100 µM | TGI (NCI-H226 lung): > 100 µM | GI50 (OVCAR-5 ovarian): > 100 µM | TGI (OVCAR-5 ovarian): > 100 µM | GI50 (DU-145 prostate): > 100 µM | TGI (DU-145 prostate): > 100 µM | GI50 (BT-549 breast): > 100 µM | TGI (BT-549 breast): > 100 µM | GI50 (MOLT-4 leukemia): > 100 µM | TGI (MOLT-4 leukemia): > 100 µM
